From ChEMBL document CHEMBL4507319 (2021) come the findings set out here.

The target in assay [1] is T1, Activin receptor type-1 (Homo sapiens) (UniProt Q04771).
T1 sequence (whole entry): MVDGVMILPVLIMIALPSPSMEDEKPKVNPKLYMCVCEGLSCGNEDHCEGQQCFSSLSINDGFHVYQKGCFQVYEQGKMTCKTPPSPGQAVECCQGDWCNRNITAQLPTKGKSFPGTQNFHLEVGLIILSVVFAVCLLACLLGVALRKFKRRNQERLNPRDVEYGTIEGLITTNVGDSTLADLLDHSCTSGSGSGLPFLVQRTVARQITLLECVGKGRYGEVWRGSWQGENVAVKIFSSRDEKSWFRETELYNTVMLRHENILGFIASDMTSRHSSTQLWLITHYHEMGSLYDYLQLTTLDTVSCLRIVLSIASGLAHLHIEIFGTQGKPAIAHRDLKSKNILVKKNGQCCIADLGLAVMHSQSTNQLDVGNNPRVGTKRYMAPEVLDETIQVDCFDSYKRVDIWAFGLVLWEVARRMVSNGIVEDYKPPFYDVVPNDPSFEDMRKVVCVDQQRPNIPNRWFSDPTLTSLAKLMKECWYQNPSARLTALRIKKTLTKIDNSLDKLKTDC
Description: ALK2(h) Eurofins kinase panel. As to conditions: Compound concentration 1.0 uM.

Assay [2] has as its target T2, Cytoplasmic tyrosine-protein kinase BMX (Homo sapiens) (UniProt P51813).
T2 sequence (whole entry): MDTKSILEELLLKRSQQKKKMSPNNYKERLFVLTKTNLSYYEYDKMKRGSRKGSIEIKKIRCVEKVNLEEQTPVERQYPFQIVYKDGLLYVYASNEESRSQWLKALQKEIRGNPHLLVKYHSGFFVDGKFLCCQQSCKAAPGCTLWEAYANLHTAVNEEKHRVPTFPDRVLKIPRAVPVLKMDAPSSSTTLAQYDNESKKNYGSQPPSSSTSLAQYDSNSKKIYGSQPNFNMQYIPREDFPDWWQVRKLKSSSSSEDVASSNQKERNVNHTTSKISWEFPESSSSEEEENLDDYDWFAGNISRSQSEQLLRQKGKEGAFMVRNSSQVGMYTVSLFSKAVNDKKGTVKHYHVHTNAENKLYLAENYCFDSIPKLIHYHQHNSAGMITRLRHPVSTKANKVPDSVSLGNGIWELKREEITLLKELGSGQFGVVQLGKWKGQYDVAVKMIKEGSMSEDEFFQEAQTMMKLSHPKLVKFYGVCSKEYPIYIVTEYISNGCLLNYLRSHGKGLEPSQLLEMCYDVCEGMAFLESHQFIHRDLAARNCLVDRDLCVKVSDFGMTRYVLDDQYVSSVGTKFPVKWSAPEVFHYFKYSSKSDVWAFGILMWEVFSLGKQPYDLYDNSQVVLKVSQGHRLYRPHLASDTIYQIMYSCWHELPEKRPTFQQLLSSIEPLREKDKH
Description: Bmx(h) Eurofins kinase panel. As to conditions: Compound concentration 1.0 uM.

In assay [3] the target is CDK7/Cyclin H/MNAT1 (Homo sapiens) (UniProt P51946+P50613+P51948). Nature of the assay: CDK7/cyclinH/MAT1(h) Eurofins kinase panel. The class given is protein-complex assay. To be noted: Compound concentration 1.0 uM.
Assay [4] has as its target Casein kinase II subunit alpha (Homo sapiens) (UniProt P68400). Description: CK2alpha1(h) Eurofins kinase panel. To be noted: Compound concentration 1.0 uM.
For assay [5], the target named is Dual specificity protein kinase CLK4 (Homo sapiens) (UniProt Q9HAZ1). Nature of the assay: CLK4(h) Eurofins kinase panel. As to conditions: Compound concentration 1.0 uM.
Sequence of Dual specificity protein kinase CLK4 (Homo sapiens) (Q9HAZ1 whole entry, looked up): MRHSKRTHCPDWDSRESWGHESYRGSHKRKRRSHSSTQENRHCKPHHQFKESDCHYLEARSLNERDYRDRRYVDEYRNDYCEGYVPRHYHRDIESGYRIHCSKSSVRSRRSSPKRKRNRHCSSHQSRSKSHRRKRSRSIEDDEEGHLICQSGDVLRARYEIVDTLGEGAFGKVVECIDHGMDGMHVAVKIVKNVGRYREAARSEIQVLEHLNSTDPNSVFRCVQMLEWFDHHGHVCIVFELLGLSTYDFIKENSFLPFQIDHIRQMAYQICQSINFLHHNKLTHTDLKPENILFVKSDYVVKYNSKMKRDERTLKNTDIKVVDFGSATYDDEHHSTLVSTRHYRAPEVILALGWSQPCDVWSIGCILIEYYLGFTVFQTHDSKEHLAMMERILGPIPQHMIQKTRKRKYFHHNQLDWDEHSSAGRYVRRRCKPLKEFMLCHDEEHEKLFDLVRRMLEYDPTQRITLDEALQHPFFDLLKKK
The target in assay [6] is Serine/threonine-protein kinase SIK2 (Homo sapiens) (UniProt Q9H0K1). Nature of the assay: SIK2(h) Eurofins kinase panel. To be noted: Compound concentration 1.0 uM.
Sequence of Serine/threonine-protein kinase SIK2 (Homo sapiens) (Q9H0K1 whole entry, looked up): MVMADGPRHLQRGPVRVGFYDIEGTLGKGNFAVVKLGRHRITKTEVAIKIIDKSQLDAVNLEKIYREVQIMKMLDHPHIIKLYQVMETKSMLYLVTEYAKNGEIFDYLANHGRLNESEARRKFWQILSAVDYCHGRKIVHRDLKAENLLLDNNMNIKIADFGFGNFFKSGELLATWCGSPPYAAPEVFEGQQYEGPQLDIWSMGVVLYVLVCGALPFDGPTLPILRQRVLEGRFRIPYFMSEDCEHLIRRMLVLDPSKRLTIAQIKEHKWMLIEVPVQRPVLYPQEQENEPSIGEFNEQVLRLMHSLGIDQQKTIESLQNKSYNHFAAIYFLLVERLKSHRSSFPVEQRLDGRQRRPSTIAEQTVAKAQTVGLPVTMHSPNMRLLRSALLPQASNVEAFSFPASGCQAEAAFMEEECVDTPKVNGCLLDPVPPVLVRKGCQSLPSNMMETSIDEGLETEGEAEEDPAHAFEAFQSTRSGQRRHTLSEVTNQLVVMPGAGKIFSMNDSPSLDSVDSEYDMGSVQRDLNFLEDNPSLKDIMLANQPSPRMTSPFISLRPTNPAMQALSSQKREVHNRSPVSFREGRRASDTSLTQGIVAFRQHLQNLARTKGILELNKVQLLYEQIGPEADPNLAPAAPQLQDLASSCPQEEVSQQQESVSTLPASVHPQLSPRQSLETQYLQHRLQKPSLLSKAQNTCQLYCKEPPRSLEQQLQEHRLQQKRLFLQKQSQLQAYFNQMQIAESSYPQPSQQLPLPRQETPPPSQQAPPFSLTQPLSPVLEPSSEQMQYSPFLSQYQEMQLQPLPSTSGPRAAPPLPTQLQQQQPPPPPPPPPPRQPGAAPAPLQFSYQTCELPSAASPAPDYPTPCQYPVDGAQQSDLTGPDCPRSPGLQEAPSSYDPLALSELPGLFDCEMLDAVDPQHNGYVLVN
In assay [7] the target is T3, Testis-specific serine/threonine-protein kinase 1 (Homo sapiens) (UniProt Q9BXA7).
T3 sequence (whole entry): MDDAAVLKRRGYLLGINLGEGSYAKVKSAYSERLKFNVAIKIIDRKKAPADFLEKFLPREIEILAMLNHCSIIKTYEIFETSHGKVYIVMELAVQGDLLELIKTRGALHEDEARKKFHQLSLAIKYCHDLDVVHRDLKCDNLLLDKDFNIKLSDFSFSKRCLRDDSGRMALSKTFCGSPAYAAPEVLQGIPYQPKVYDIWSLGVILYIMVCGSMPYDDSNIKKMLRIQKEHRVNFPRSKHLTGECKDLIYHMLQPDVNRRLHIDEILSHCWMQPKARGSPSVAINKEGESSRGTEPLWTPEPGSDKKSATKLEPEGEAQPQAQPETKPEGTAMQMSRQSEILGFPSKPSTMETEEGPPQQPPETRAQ
Nature of the assay: TSSK1(h) Eurofins kinase panel. As to conditions: Compound concentration 1.0 uM.

Assay [8] deals with T4, Serine/threonine-protein kinase ULK1 (Homo sapiens) (UniProt O75385).
T4 sequence (whole entry): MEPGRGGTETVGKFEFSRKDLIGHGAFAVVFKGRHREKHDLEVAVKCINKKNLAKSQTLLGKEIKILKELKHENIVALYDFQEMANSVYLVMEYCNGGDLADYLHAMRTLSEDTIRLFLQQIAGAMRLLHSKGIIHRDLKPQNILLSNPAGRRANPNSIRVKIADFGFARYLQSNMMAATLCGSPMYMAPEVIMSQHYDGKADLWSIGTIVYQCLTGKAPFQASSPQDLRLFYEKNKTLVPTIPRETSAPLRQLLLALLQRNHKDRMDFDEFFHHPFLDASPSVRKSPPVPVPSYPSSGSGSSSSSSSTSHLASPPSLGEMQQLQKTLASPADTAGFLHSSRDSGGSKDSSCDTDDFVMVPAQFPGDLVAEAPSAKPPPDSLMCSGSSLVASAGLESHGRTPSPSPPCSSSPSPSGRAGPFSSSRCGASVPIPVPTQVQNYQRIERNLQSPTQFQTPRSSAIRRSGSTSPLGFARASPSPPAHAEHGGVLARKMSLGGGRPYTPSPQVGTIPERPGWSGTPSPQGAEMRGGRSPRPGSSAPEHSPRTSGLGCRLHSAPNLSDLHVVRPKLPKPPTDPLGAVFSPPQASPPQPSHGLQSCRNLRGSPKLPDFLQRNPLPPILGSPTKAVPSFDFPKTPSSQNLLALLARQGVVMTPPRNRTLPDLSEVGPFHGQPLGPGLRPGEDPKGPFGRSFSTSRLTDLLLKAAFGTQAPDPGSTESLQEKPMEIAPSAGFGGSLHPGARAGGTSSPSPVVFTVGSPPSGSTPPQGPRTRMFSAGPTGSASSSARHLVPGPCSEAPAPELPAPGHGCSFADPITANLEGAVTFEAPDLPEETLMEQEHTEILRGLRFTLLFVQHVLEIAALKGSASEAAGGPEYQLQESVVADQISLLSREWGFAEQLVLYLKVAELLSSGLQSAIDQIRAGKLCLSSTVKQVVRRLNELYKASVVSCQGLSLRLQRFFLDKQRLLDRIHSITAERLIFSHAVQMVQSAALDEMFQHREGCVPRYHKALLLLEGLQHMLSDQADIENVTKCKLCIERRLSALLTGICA
Description: ULK1(h) Eurofins kinase panel. To be noted: Compound concentration 1.0 uM.

Assay [9] concerns the target Wee1-like protein kinase 2 (Homo sapiens) (UniProt P0C1S8). Nature of the assay: Wee1B(h) Eurofins kinase panel. To be noted: Compound concentration 1.0 uM.
For assay [10], the system named is L-363. Description: L-363 cell line Proliferation assay. The class given is functional, Homo sapiens. As to conditions: time 3 day.
Assay [11] concerns the target Ribosomal protein S6 kinase alpha-5 (Homo sapiens, UniProt O75582). As to conditions: Compound concentration 1.0 uM.

Sequence of Wee1-like protein kinase 2 (Homo sapiens) (P0C1S8 whole entry, looked up): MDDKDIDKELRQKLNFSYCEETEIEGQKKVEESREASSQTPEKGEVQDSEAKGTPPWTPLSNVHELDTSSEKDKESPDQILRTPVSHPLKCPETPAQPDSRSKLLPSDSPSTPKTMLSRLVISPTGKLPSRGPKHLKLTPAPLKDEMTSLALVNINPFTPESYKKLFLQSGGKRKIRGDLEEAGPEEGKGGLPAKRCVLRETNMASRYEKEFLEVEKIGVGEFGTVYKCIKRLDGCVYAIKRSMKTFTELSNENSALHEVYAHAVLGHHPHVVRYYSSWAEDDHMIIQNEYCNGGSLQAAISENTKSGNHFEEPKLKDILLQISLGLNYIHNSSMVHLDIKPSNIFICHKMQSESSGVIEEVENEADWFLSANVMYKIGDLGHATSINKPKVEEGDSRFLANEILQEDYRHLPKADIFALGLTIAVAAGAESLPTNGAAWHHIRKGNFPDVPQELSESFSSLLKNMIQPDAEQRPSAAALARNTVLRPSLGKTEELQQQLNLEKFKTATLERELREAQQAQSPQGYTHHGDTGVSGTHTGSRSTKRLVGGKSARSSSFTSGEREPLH
Sequence of Casein kinase II subunit alpha (Homo sapiens) (P68400 whole entry, looked up): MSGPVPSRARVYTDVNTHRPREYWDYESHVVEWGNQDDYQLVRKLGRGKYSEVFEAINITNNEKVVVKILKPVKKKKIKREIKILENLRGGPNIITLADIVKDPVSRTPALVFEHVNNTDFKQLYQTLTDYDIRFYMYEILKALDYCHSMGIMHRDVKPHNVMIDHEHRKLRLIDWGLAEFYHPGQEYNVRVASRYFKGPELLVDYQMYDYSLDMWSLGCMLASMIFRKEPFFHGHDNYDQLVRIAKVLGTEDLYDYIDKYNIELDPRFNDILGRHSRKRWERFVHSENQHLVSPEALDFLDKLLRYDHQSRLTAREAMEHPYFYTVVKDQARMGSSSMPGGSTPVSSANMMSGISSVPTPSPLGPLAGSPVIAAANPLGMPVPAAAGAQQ
Sequence of Ribosomal protein S6 kinase alpha-5 (O75582 whole entry, looked up): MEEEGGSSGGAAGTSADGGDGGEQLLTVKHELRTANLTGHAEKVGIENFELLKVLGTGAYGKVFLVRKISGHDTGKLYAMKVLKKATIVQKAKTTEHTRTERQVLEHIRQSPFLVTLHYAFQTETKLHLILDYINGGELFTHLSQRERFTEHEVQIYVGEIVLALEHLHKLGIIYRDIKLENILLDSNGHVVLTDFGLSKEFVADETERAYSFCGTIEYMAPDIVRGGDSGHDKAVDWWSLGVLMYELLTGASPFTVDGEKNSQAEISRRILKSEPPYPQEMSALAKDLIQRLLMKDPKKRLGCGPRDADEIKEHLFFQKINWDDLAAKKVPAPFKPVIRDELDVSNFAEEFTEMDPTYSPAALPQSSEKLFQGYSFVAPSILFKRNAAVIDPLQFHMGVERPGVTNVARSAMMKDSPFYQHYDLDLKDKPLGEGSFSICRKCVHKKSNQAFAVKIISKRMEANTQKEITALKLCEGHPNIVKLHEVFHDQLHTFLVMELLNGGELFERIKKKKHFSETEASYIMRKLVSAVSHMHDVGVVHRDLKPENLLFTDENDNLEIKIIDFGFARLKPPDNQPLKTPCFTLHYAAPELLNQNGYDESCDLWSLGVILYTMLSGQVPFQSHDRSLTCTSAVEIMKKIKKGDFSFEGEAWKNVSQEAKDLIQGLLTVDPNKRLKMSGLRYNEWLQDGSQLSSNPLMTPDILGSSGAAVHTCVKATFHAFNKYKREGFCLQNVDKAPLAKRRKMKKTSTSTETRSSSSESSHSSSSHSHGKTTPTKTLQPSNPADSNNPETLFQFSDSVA

For `CCc1ccccc1C(=O)Nc1n[nH]c2c(C)c(F)c(C3C(C#N)=C(C)N(C)C(C)=C3C#N)cc12` [BAY-3827], the % residual kinase activity in assay [1] was 109%; in assay [2], 113%; in assay [3], 66%; in assay [4], 93%; in [5], 104%; in [6], 68%. Moreover, the % residual kinase activity in assay [7] was 84%; in assay [8], 26%; in assay [9], 101%; in [11], 10%. The “Cell Proliferation IC50” value in assay [10] came to 10.8 µM.
